Values after ≈ are worked out from the molar mass of the structure shown. Active and inactive are the calls of the source. The calls are words filed in the database; no cut-off is given here.
What was measured:
Penicillium roqueforti = assay: Antifungal activity against Penicillium roqueforti by serial two-fold dilution microtiter plate method; type: functional
Wickerhamomyces anomalus = assay: Antifungal activity against Pichia anomala by serial two-fold dilution microtiter plate method; type: functional; conditions: Hansenula anomala
[1] = Antifungal activity against […] mucilaginosa by serial two-fold dilution microtiter plate method; type: functional
Aspergillus fumigatus = assay: Antifungal activity against Aspergillus fumigatus by serial two-fold dilution microtiter plate method; type: functional
Aspergillus nidulans = assay: Antifungal activity against Aspergillus nidulans by serial two-fold dilution microtiter plate method; type: functional
Kluyveromyces marxianus = assay: Antifungal activity against Kluyveromyces marxianus by serial two-fold dilution microtiter plate method; type: functional
[2] = Antifungal activity against Penicillium commune by serial two-fold dilution microtiter plate method; type: functional
Escherichia coli = assay: Antibacterial activity against Escherichia coli by broth dilution method; type: functional, organism-based
Candida albicans = assay: Antifungal activity against Candida albicans by broth dilution; type: functional
Bacillus cereus = assay: Antibacterial activity against Bacillus cereus by broth dilution method; type: functional
Staphylococcus aureus = assay: Antibacterial activity against methicillin-resistant Staphylococcus aureus by broth dilution method; type: functional, organism-based

MIC (Penicillium roqueforti) [µg/mL] | MIC (Wickerhamomyces anomalus) [µg/mL] | MIC [1] [µg/mL] | MIC (Aspergillus fumigatus) [µg/mL] | MIC (Aspergillus nidulans) [µg/mL] | MIC (Kluyveromyces marxianus) [µg/mL] | MIC [2] [µg/mL] | SMILES | Activity (Escherichia coli) | MIC (Candida albicans) [µg/mL] | MIC (Bacillus cereus) [µg/mL] | Activity (Staphylococcus aureus)
10 (≈ 46.2 µM) | 10 (≈ 46.2 µM) | 10 (≈ 46.2 µM) | 10 (≈ 46.2 µM) | 10 (≈ 46.2 µM) | 10 (≈ 46.2 µM) | 10 (≈ 46.2 µM) | CCCCCCCCC[C@@H](O)CC(=O)O |  |  |  | 
 |  |  |  |  |  |  | CCCCCCCCCCCCC[C@@H](O)CC(=O)O | inactive | 12.5 (≈ 45.9 µM) | 6.25 (≈ 22.9 µM) | inactive
10 (≈ 40.9 µM) | 10 (≈ 40.9 µM) | 10 (≈ 40.9 µM) | 10 (≈ 40.9 µM) | 10 (≈ 40.9 µM) | 10 (≈ 40.9 µM) | 10 (≈ 40.9 µM) | CCCCCCCCCCC[C@@H](O)CC(=O)O |  |  |  | 

Source: ChEMBL document CHEMBL2203141, “Heterologously expressed β-hydroxyl fatty acids from a metagenomic library of a marine sponge” (2012)
